Source: PMC9060607 (RSC Advances, 2019)
Where a name gives a salt, the structure may show the parent alone.

Assays:
plasma esterases [1] = experiment: Inhibition of CDD hydrolysis in rat plasma by esterase inhibitors; assay type: biochemical; conditions: for % inhibition of CDD hydrolysis: CDD 1.5 μM, 37 °C, 5 s
plasma esterases [2] = experiment: Inhibition of CDD hydrolysis in dog plasma by esterase inhibitors; assay type: biochemical, beagle dog; conditions: for % inhibition of CDD hydrolysis: CDD 1.5 μM, 37 °C, 15 min
plasma esterases [3] = experiment: Inhibition of CDD hydrolysis in human plasma by esterase inhibitors; assay type: biochemical; conditions: for % inhibition of CDD hydrolysis: CDD 1.5 μM, 37 °C, 5 min
plasma CES = conditions: rat plasma, inhibitor 10 mM; cited from earlier work

O=[N+]([O-])c1ccc(OP(=O)(O)Oc2ccc([N+](=O)[O-])cc2)cc1 [BNPP, Bis(4-nitrophenyl) phosphate]
% inhibition of CDD hydrolysis (plasma esterases [1]; inhibitor 0.1 mM): 83.0 ± 8.9% | % inhibition of CDD hydrolysis (plasma esterases [1]; inhibitor 1 mM): 97.0 ± 7.7% | % inhibition of CDD hydrolysis (plasma esterases [2]; inhibitor 0.1 mM): 16.6 ± 8.2% | % inhibition of CDD hydrolysis (plasma esterases [2]; inhibitor 1 mM): 63.6 ± 1.8% | % inhibition of CDD hydrolysis (plasma esterases [3]; inhibitor 0.1 mM): <10% | inhibition of CDD hydrolysis (in words) (plasma esterases [3]; inhibitor 1 mM): partial inhibition | % inhibition of CDD hydrolysis (plasma esterases [3]; inhibitor 1 mM): 42.2 ± 6.7% | effect on ex vivo hydrolysis of CDD (plasma CES): inhibited

C=CC[N+](C)(C)c1ccc(CCC(=O)CCc2ccc([N+](C)(C)CC=C)cc2)cc1.[Br-].[Br-] [BW284c51, 1,5-bis(4-allyldimethylammoniumphenyl)pentan-3-one dibromide]
inhibition of CDD hydrolysis (in words) (plasma esterases [1]; concentration not given): did not prevent | % inhibition of CDD hydrolysis (plasma esterases [1]; inhibitor 10 μM): <10% | % inhibition of CDD hydrolysis (plasma esterases [1]; inhibitor 100 μM): <10% | inhibition of CDD hydrolysis (in words) (plasma esterases [2]; concentration not given): no inhibition | % inhibition of CDD hydrolysis (plasma esterases [2]; inhibitor 10 μM): <10% | % inhibition of CDD hydrolysis (plasma esterases [2]; inhibitor 100 μM): <10% | inhibition of CDD hydrolysis (in words) (plasma esterases [3]; concentration not given): no inhibition | % inhibition of CDD hydrolysis (plasma esterases [3]; inhibitor 10 μM): <10% | % inhibition of CDD hydrolysis (plasma esterases [3]; inhibitor 100 μM): <10%

O=C(O)c1cc(SSc2ccc([N+](=O)[O-])c(C(=O)O)c2)ccc1[N+](=O)[O-] [DTNB, 5,5′-dithiobis-2-nitrobenzoic acid]
inhibition of CDD hydrolysis (in words) (plasma esterases [1]; concentration not given): did not prevent | % inhibition of CDD hydrolysis (plasma esterases [1]; inhibitor 0.1 mM): <10% | % inhibition of CDD hydrolysis (plasma esterases [1]; inhibitor 1 mM): <10% | % inhibition of CDD hydrolysis (plasma esterases [2]; inhibitor 0.1 mM): <10% | inhibition of CDD hydrolysis (in words) (plasma esterases [2]; inhibitor 1 mM): moderate inhibition | % inhibition of CDD hydrolysis (plasma esterases [2]; inhibitor 1 mM): 47.8 ± 0.83% | % inhibition of CDD hydrolysis (plasma esterases [3]; inhibitor 0.1 mM): <10% | inhibition of CDD hydrolysis (in words) (plasma esterases [3]; inhibitor 1 mM): moderate inhibition | % inhibition of CDD hydrolysis (plasma esterases [3]; inhibitor 1 mM): 52.0 ± 1.5%

O=C([O-])CN(CCN(CC(=O)[O-])CC(=O)O)CC(=O)O.[Na+].[Na+] [EDTA, Ethylenediaminetetraacetic acid disodium]
inhibition of CDD hydrolysis (in words) (plasma esterases [1]; concentration not given): did not prevent | % inhibition of CDD hydrolysis (plasma esterases [1]; inhibitor 5 mM): <10% | % inhibition of CDD hydrolysis (plasma esterases [1]; inhibitor 10 mM): <10% | inhibition of CDD hydrolysis (in words) (plasma esterases [2]; concentration not given): no inhibition | % inhibition of CDD hydrolysis (plasma esterases [2]; inhibitor 5 mM): <10% | % inhibition of CDD hydrolysis (plasma esterases [2]; inhibitor 10 mM): <10% | inhibition of CDD hydrolysis (in words) (plasma esterases [3]; concentration not given): no inhibition | % inhibition of CDD hydrolysis (plasma esterases [3]; inhibitor 5 mM): <10% | % inhibition of CDD hydrolysis (plasma esterases [3]; inhibitor 10 mM): <10%

O=C(O)CN(CCOCCOCCN(CC(=O)O)CC(=O)O)CC(=O)O [EGTA, ethyleneglycol-bis(2-aminoethylether)-tetraacetic acid]
% inhibition of CDD hydrolysis (plasma esterases [1]; inhibitor 5 mM): <10% | % inhibition of CDD hydrolysis (plasma esterases [1]; inhibitor 10 mM): <10% | inhibition of CDD hydrolysis (in words) (plasma esterases [2]; concentration not given): fewer than those of the aforementioned esterase inhibitors | % inhibition of CDD hydrolysis (plasma esterases [2]; inhibitor 5 mM): 17.3 ± 6.1% | % inhibition of CDD hydrolysis (plasma esterases [2]; inhibitor 10 mM): 19.9 ± 8.0% | inhibition of CDD hydrolysis (in words) (plasma esterases [3]; concentration not given): partially inhibited | % inhibition of CDD hydrolysis (plasma esterases [3]; inhibitor 5 mM): 23.2 ± 11.4% | % inhibition of CDD hydrolysis (plasma esterases [3]; inhibitor 10 mM): 26.5 ± 3.6%

CNC(=O)Oc1ccc2c(c1)[C@]1(C)CCN(C)[C@@H]1N2C [Eserine, eserine hemisulfate salt]
inhibition of CDD hydrolysis (in words) (plasma esterases [1]; concentration not given): did not prevent | % inhibition of CDD hydrolysis (plasma esterases [1]; inhibitor 10 μM): <10% | % inhibition of CDD hydrolysis (plasma esterases [1]; inhibitor 100 μM): <10% | inhibition of CDD hydrolysis (in words) (plasma esterases [2]; concentration not given): no inhibition | % inhibition of CDD hydrolysis (plasma esterases [2]; inhibitor 10 μM): <10% | % inhibition of CDD hydrolysis (plasma esterases [2]; inhibitor 100 μM): <10% | inhibition of CDD hydrolysis (in words) (plasma esterases [3]; concentration not given): no inhibition | % inhibition of CDD hydrolysis (plasma esterases [3]; inhibitor 10 μM): <10% | % inhibition of CDD hydrolysis (plasma esterases [3]; inhibitor 100 μM): <10%

CC(C)NP(=O)(NC(C)C)OP(=O)(NC(C)C)NC(C)C [Iso-OMPA, tetraisopropyl pyrophosphoramide]
% inhibition of CDD hydrolysis (plasma esterases [1]; inhibitor 0.1 mM): 99.5 ± 11.2% | % inhibition of CDD hydrolysis (plasma esterases [1]; inhibitor 0.1 mM, listed as iso-OMPA): > 80% | % inhibition of CDD hydrolysis (plasma esterases [1]; inhibitor 1 mM): 108.3 ± 5.2% | inhibition of CDD hydrolysis (in words) (plasma esterases [2]; concentration not given): fewer than those of the aforementioned esterase inhibitors | % inhibition of CDD hydrolysis (plasma esterases [2]; inhibitor 0.1 mM): 16.9 ± 7.1% | % inhibition of CDD hydrolysis (plasma esterases [2]; inhibitor 1 mM): 17.6 ± 6.7% | inhibition of CDD hydrolysis (in words) (plasma esterases [3]; concentration not given): no inhibition | % inhibition of CDD hydrolysis (plasma esterases [3]; inhibitor 0.1 mM): <10% | % inhibition of CDD hydrolysis (plasma esterases [3]; inhibitor 1 mM): <10%

[F-].[Na+] [NaF, Sodium fluoride]
% inhibition of CDD hydrolysis (plasma esterases [1]; inhibitor 5 mM): <10% | inhibition of CDD hydrolysis (in words) (plasma esterases [1]; inhibitor 10 mM): partially prevented | % inhibition of CDD hydrolysis (plasma esterases [1]; inhibitor 10 mM): 24.4 ± 7.1% | inhibition of CDD hydrolysis (in words) (plasma esterases [2]; concentration not given): no inhibition | % inhibition of CDD hydrolysis (plasma esterases [2]; inhibitor 5 mM): <10% | % inhibition of CDD hydrolysis (plasma esterases [2]; inhibitor 10 mM): <10% | inhibition of CDD hydrolysis (in words) (plasma esterases [3]; concentration not given): no inhibition | % inhibition of CDD hydrolysis (plasma esterases [3]; inhibitor 5 mM): <10% | % inhibition of CDD hydrolysis (plasma esterases [3]; inhibitor 10 mM): <10%

O=S(=O)(F)Cc1ccccc1 [PMSF, Phenylmethanesulfonyl fluoride]
% inhibition of CDD hydrolysis (plasma esterases [1]; inhibitor 0.1 mM): <10% | % inhibition of CDD hydrolysis (plasma esterases [1]; inhibitor 1 mM): 96.0 ± 9.2% | % inhibition of CDD hydrolysis (plasma esterases [2]; inhibitor 0.1 mM): <10% | % inhibition of CDD hydrolysis (plasma esterases [2]; inhibitor 1 mM): 29.6 ± 5.3% | inhibition of CDD hydrolysis (in words) (plasma esterases [3]; concentration not given): no inhibition | % inhibition of CDD hydrolysis (plasma esterases [3]; inhibitor 0.1 mM): <10% | % inhibition of CDD hydrolysis (plasma esterases [3]; inhibitor 1 mM): <10% | effect on ex vivo hydrolysis of CDD (plasma CES): inhibited

Cl.NCCc1ccc(S(=O)(=O)F)cc1 [Pefabloc® SC, 4-(2-aminoethyl-)benzenesulphonylfloride hydrochloride]
% inhibition of CDD hydrolysis (plasma esterases [1]; inhibitor 0.1 mM): 19.4 ± 2.1% | % inhibition of CDD hydrolysis (plasma esterases [1]; inhibitor 1 mM): 99.8 ± 7.9% | % inhibition of CDD hydrolysis (plasma esterases [2]; inhibitor 0.1 mM): <10% | % inhibition of CDD hydrolysis (plasma esterases [2]; inhibitor 1 mM): 25.8 ± 3.1% | inhibition of CDD hydrolysis (in words) (plasma esterases [3]; concentration not given): no inhibition | % inhibition of CDD hydrolysis (plasma esterases [3]; inhibitor 0.1 mM): <10% | % inhibition of CDD hydrolysis (plasma esterases [3]; inhibitor 1 mM): <10%

Cc1ccc(S(=O)(=O)N[C@@H](CCCCN)C(=O)CCl)cc1.Cl [TLCK, N-α-tosyl-L-lysine chloromethylketone hydrochloride]
inhibition of CDD hydrolysis (in words) (plasma esterases [1]; concentration not given): did not prevent | % inhibition of CDD hydrolysis (plasma esterases [1]; inhibitor 0.1 mM): <10% | % inhibition of CDD hydrolysis (plasma esterases [1]; inhibitor 1 mM): <10% | % inhibition of CDD hydrolysis (plasma esterases [2]; inhibitor 0.1 mM): <10% | % inhibition of CDD hydrolysis (plasma esterases [2]; inhibitor 1 mM): 17.0 ± 10.3% | inhibition of CDD hydrolysis (in words) (plasma esterases [3]; concentration not given): no inhibition | % inhibition of CDD hydrolysis (plasma esterases [3]; inhibitor 0.1 mM): <10% | % inhibition of CDD hydrolysis (plasma esterases [3]; inhibitor 1 mM): <10%
